From the supplement of paper PMC10307832

Columns and labels:
Assay in all cases: relative viability (nuclei count vs DMSO), 5 days (fraction); higher = more cells survive
PC-3 [JPC-3] = test system: PC-3 [JPC-3]
Summary of the method: (§1)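 After 5 days of treatment, lung cancer cells in 1536-well plates were fixed and stained in a single step (final 0.05% Triton X-100, 1% formaldehyde, 1 ug/ml Hoechst) and their nuclei counted on 4× images. Treatment had been applied by pin tool the day after seeding as one drug alone or as a fixed anchor-drug dose with five library-drug doses (not always all listed) in √10 steps. Relative viability is the nuclei count of treated wells divided by that of vehicle wells, and values are medians of duplicate plates.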

NCI-H2126 = test system: NCI-H2126
Summary of the method: as §1

NCI-H1975 = test system: NCI-H1975
Summary of the method: as §1

NCI-H1915 = test system: NCI-H1915
Summary of the method: as §1

NCI-H1755 = test system: NCI-H1755
Summary of the method: as §1

LXF-289 = test system: LXF-289
Summary of the method: as §1

NCI-H647 = test system: NCI-H647
Summary of the method: as §1

NCI-H2228 = test system: NCI-H2228
Summary of the method: as §1

HCC-15 = test system: HCC-15
Summary of the method: as §1

NCI-H2347 = test system: NCI-H2347
Summary of the method: as §1

HOP-62 = test system: HOP-62
Summary of the method: as §1

A-427 = test system: A-427
Summary of the method: as §1

LC-2-ad = test system: LC-2-ad
Summary of the method: as §1

NCI-H1734 = test system: NCI-H1734
Summary of the method: as §1

NCI-H1792 = test system: NCI-H1792
Summary of the method: as §1

RERF-LC-KJ = test system: RERF-LC-KJ
Summary of the method: as §1

NCI-H358 = test system: NCI-H358
Summary of the method: as §1

HCC-78 = test system: HCC-78
Summary of the method: as §1

SK-LU-1 = test system: SK-LU-1
Summary of the method: as §1

SW 1573 = test system: SW 1573
Summary of the method: as §1

CC(=O)O[C@@]12CO[C@@H]1C[C@H](O)[C@@]1(C)C(=O)[C@H](O)C3=C(C)[C@@H](OC(=O)[C@H](O)[C@@H](NC(=O)OC(C)(C)C)c4ccccc4)C[C@@](O)([C@@H](OC(=O)c4ccccc4)[C@H]21)C3(C)C [Docetaxel] + Cc1nc(NC(=O)N2CCC[C@H]2C(N)=O)sc1-c1ccnc(C(C)(C)C(F)(F)F)c1 [Alpelisib] (partner 2 µM)
relative viability (PC-3 [JPC-3]; first compound 0.0002 µM): 1.02 | relative viability (PC-3 [JPC-3]; first compound 0.000632 µM): 1.07 | relative viability (PC-3 [JPC-3]; first compound 0.002 µM): 0.781 | relative viability (PC-3 [JPC-3]; first compound 0.006325 µM): 0.279 | relative viability (PC-3 [JPC-3]; first compound 0.02 µM): 0.167 | relative viability (NCI-H2126; first compound 0.0002 µM): 0.781 | relative viability (NCI-H2126; first compound 0.000632 µM): 0.753 | relative viability (NCI-H2126; first compound 0.002 µM): 0.541 | relative viability (NCI-H2126; first compound 0.006325 µM): 0.321 | relative viability (NCI-H2126; first compound 0.02 µM): 0.231 | relative viability (NCI-H1975; first compound 0.0002 µM): 0.617 | relative viability (NCI-H1975; first compound 0.000632 µM): 0.437 | relative viability (NCI-H1975; first compound 0.006325 µM): 0.156 | relative viability (NCI-H1975; first compound 0.02 µM): 0.122 | relative viability (NCI-H1915; first compound 0.0002 µM): 1.02 | relative viability (NCI-H1915; first compound 0.000632 µM): 0.971 | relative viability (NCI-H1915; first compound 0.002 µM): 0.52 | relative viability (NCI-H1915; first compound 0.006325 µM): 0.183 | relative viability (NCI-H1915; first compound 0.02 µM): 0.135 | relative viability (NCI-H1755; first compound 0.0002 µM): 0.871 | relative viability (NCI-H1755; first compound 0.000632 µM): 0.792 | relative viability (NCI-H1755; first compound 0.002 µM): 0.434 | relative viability (NCI-H1755; first compound 0.006325 µM): 0.326 | relative viability (NCI-H1755; first compound 0.02 µM): 0.262 | relative viability (LXF-289; first compound 0.0002 µM): 1.09 | relative viability (LXF-289; first compound 0.000632 µM): 0.577 | relative viability (LXF-289; first compound 0.002 µM): 0.59 | relative viability (LXF-289; first compound 0.006325 µM): 0.119 | relative viability (LXF-289; first compound 0.02 µM): 0.0912 | relative viability (NCI-H647; first compound 0.0002 µM): 0.903 | relative viability (NCI-H647; first compound 0.000632 µM): 0.347 | relative viability (NCI-H647; first compound 0.002 µM): 0.189 | relative viability (NCI-H647; first compound 0.006325 µM): 0.0725 | relative viability (NCI-H647; first compound 0.02 µM): 0.0507 | relative viability (NCI-H2228; first compound 0.0002 µM): 0.329 | relative viability (NCI-H2228; first compound 0.000632 µM): 0.243 | relative viability (NCI-H2228; first compound 0.002 µM): 0.232 | relative viability (NCI-H2228; first compound 0.006325 µM): 0.151 | relative viability (NCI-H2228; first compound 0.02 µM): 0.118 | relative viability (HCC-15; first compound 0.0002 µM): 0.805 | relative viability (HCC-15; first compound 0.000632 µM): 0.467 | relative viability (HCC-15; first compound 0.002 µM): 0.196 | relative viability (HCC-15; first compound 0.006325 µM): 0.208 | relative viability (HCC-15; first compound 0.02 µM): 0.118 | relative viability (NCI-H2347; first compound 0.0002 µM): 1.01 | relative viability (NCI-H2347; first compound 0.000632 µM): 1.1 | relative viability (NCI-H2347; first compound 0.002 µM): 0.666 | relative viability (NCI-H2347; first compound 0.006325 µM): 0.525 | relative viability (NCI-H2347; first compound 0.02 µM): 0.438 | relative viability (HOP-62; first compound 0.0002 µM): 0.899 | relative viability (HOP-62; first compound 0.000632 µM): 0.526 | relative viability (A-427; first compound 0.0002 µM): 1.02 | relative viability (A-427; first compound 0.000632 µM): 1.14 | relative viability (A-427; first compound 0.002 µM): 0.974 | relative viability (A-427; first compound 0.006325 µM): 0.204 | relative viability (A-427; first compound 0.02 µM): 0.164 | relative viability (LC-2-ad; first compound 0.0002 µM): 0.538 | relative viability (LC-2-ad; first compound 0.000632 µM): 0.174 | relative viability (LC-2-ad; first compound 0.002 µM): 0.166 | relative viability (LC-2-ad; first compound 0.006325 µM): 0.11 | relative viability (LC-2-ad; first compound 0.02 µM): 0.0967 | relative viability (NCI-H1734; first compound 0.0002 µM): 0.614 | relative viability (NCI-H1734; first compound 0.000632 µM): 0.67 | relative viability (NCI-H1734; first compound 0.002 µM): 0.406 | relative viability (NCI-H1734; first compound 0.006325 µM): 0.355 | relative viability (NCI-H1734; first compound 0.02 µM): 0.267 | relative viability (NCI-H1792; first compound 0.0002 µM): 0.728 | relative viability (NCI-H1792; first compound 0.000632 µM): 0.655 | relative viability (NCI-H1792; first compound 0.002 µM): 0.401 | relative viability (NCI-H1792; first compound 0.02 µM): 0.0824 | relative viability (RERF-LC-KJ; first compound 0.0002 µM): 0.801 | relative viability (RERF-LC-KJ; first compound 0.000632 µM): 0.712 | relative viability (RERF-LC-KJ; first compound 0.002 µM): 0.38 | relative viability (RERF-LC-KJ; first compound 0.006325 µM): 0.235 | relative viability (RERF-LC-KJ; first compound 0.02 µM): 0.172 | relative viability (NCI-H358; first compound 0.0002 µM): 0.786 | relative viability (NCI-H358; first compound 0.000632 µM): 0.361 | relative viability (NCI-H358; first compound 0.002 µM): 0.267 | relative viability (NCI-H358; first compound 0.02 µM): 0.111 | relative viability (HCC-78; first compound 0.0002 µM): 0.338 | relative viability (HCC-78; first compound 0.000632 µM): 0.279 | relative viability (HCC-78; first compound 0.002 µM): 0.255 | relative viability (HCC-78; first compound 0.006325 µM): 0.24 | relative viability (HCC-78; first compound 0.02 µM): 0.175 | relative viability (SK-LU-1; first compound 0.0002 µM): 0.766 | relative viability (SK-LU-1; first compound 0.000632 µM): 0.467 | relative viability (SK-LU-1; first compound 0.002 µM): 0.495 | relative viability (SK-LU-1; first compound 0.006325 µM): 0.26 | relative viability (SK-LU-1; first compound 0.02 µM): 0.228 | relative viability (SW 1573; first compound 0.0002 µM): 0.739 | relative viability (SW 1573; first compound 0.000632 µM): 0.604 | relative viability (SW 1573; first compound 0.002 µM): 0.29 | relative viability (SW 1573; first compound 0.006325 µM): 0.233 | relative viability (SW 1573; first compound 0.02 µM): 0.185
